Calls of active or inactive are those of the source.
Assays:
[1] = biological target: Kallikrein-7 (Homo sapiens, UniProt P49862); assay: Fluorescence Intensity-based biochemical primary high throughput dose response assay to identify activators of kallikrein-7 (K7) zymogen.
[2] = inhibition of Env-driven cell fusion – HIV entry, plate reader, dry powder, dose response (AID 687023); format: functional, cell-based
[3] = Single fluorophore orthopox expression reporter, late gene expression Measured in Cell-Based and Microorganism Combination System Using Plate Reader - 2142-08_Inhibitor_Dose_DryPowder_Activity.; format: functional
[4] = lung carcinoma cell viability loss – CellTiter-Glo luminescence, dry powder, set 17, dose response (AID 1117284); format: functional, cell-based; settings: A549
[5] = inhibitors of orthopox intermediate gene expression, dose response, cell-based, single fluorophore reporter, dry powder (AID 1117271); format: functional
[6] = Orthopox viral replication plaque formation Measured in Cell-Based and Microorganism Combination System Using Imaging - 2142-05_Inhibitor_Dose_DryPowder_Activity.; format: functional
[7] = biological target: T1, Low molecular weight phosphotyrosine protein phosphatase (Homo sapiens, UniProt P24666); assay: inhibition of LMPTP-A enzymatic activity – biochemical, OMFP substrate, fluorescence intensity, set 2, dose response (AID 743307); format: functional
T1 sequence (P24666 whole entry): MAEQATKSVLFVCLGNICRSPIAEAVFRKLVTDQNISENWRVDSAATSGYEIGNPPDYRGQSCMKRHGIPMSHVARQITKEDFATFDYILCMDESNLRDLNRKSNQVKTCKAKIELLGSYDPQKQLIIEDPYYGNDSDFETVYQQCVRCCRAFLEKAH

[8] = biological target: T1, Low molecular weight phosphotyrosine protein phosphatase; assay: inhibition of human LMPTP enzyme activity – biochemical, absorbance, pNPP substrate, LMPTP-A isoform, set 2, orthogonal assay, dose response (AID 743308); format: functional
[9] = growth inhibition of yeast DHODH-expressing 3D7 parasites – SYBR Green, dry powder samples, dose response (AID 1159570); format: functional, cell-based;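 also: parasite growth measured after 72 hours of compound exposure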
[10] = Dd2 parasite growth inhibition in erythrocytes – SYBR Green, dry powder samples, set 9, dose response (AID 1159568); format: functional, cell-based
[11] = P. falciparum Dd2 growth inhibitors, dose response, SYBR Green, cherry-picked samples (AID 1159567); format: functional, cell-based
[12] = Dd2 malaria parasite growth inhibition potency – SYBR Green, dry powder samples, dose response (AID 1159566); format: functional, cell-based;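 also: potency for growth inhibition with lower SYBR green DNA signal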
[13] = Plasmodium falciparum Dd2 Sybr green parasite growth Measured in Cell-Based and Microorganism Combination System Using Plate Reader - 2153-01_Inhibitor_Dose_DryPowder_Activity_Set3.; format: functional
[14] = growth inhibition of PfATP4-mutant resistant parasites – NITD609-resistant line, SYBR Green, dry powder, dose response (AID 1159571); format: functional, cell-based;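 also: parasites synchronized at ring stage by sorbitol before testing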
[15] = toxicity to human HepG2 hepatoma cells – cell-based, plate reader, dry powder samples, cytotoxicity control, dose response (AID 1159569); format: functional;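 also: inhibitor potency with signal falling toward the positive control level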
[16] = Dd2 parasite growth inhibition in erythrocytes – SYBR Green, dry powder samples, set 4, dose response (AID 1159572); format: functional, cell-based
[17] = toxicity to human hepatoma HepG2 cells – cell-based, cherry-picked samples, cytotoxicity control, dose response (AID 1159577); format: functional
[18] = test system: BJ; assay: BJ-TERT fibroblast viability loss – cell-based, RAS-independent, luminescence, dose response (AID 1933); format: functional; settings: Homo sapiens
[19] = test system: BJ; assay: cells; format: functional, cell-based; settings: Homo sapiens
[20] = test system: BJ; assay: BJ-TERT-LT-ST fibroblast viability loss – cell-based, RAS-independent, luminescence, dose response (AID 1935); format: functional; settings: Homo sapiens;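 also: BJ fibroblasts immortalized with TERT plus LT and ST oncogenes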
[21] = DRD fibroblast viability loss – cell-based, non-viral oncogenic, luminescence, dose response (AID 1934); format: functional; settings: Homo sapiens
[22] = test system: BJ; assay: growth inhibition of engineered Ras-driven BJ cells – cell-based, alamar blue fluorescence, cherrypicked samples, dose response (AID 2631); format: functional; settings: Homo sapiens;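 also: confirmatory dose-response assay in RAS-dependent BJ fibroblasts engineered with TERT, LT and ST, with cytotoxicity read by fluorescence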
[23] = rise of 2N DNA cells, HeLa – IC50, dose response (AID 1117349); format: functional, cell-based
[24] = CellTiter-Glo luminescence survival assay, SW480 colon tumor line, concentration-response curve, half-maximal inhibitory concentration (AID 1117338); format: functional
[25] = RKO cell viability reduction, dose response, CellTiter-Glo luminescence (AID 1117322); format: functional
[26] = cytotoxicity toward HCT116 cells – cell-based, CellTiter-Glo luminescence, IC50, dose response (AID 1117332); format: functional; settings: HCT-116
[27] = SNU-C1 cell viability reduction, dose response, CellTiter-Glo luminescence (AID 1117323); format: functional, cell-based
[28] = cytotoxicity toward Colo320 cells – cell-based, CellTiter-Glo luminescence, IC50, dose response (AID 1117334); format: functional; settings: COLO 320
[29] = rise of 4N DNA cells, HeLa – IC50, dose response (AID 1117351); format: functional, cell-based
[30] = cytotoxicity toward HT-29 cells – cell-based, CellTiter-Glo luminescence, IC50, dose response (AID 1117330); format: functional
[31] = Reduced DLD-1 viability, concentration-response, CellTiter-Glo luminescence (AID 1117352); format: functional
[32] = HCT116 cell viability decrease, GSK3B pretreatment – CellTiter-Glo, IC50, dose response (AID 1117339); format: functional; settings: HCT-116
[33] = IC50 of insulin release inhibition, rat insulinoma INS-1E line, 5 mM glucose, cell-based (AID 1117331); format: functional
[34] = cells; format: functional, cell-based; settings: INS-1E

Sequence of Kallikrein-7 (P49862 whole entry, the tested form may be a part): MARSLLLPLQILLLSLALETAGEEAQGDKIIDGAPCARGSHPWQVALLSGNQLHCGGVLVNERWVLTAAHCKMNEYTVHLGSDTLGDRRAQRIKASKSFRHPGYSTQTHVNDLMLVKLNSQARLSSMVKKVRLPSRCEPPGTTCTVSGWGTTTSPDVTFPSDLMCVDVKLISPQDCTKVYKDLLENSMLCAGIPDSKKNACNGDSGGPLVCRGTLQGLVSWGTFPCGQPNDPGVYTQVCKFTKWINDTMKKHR

CN(C)c1ccc(-c2cccc3nccn23)cc1
EC50 [1]: > 69500 nM (inactive)

Cc1noc(C)c1S(=O)(=O)Nc1cccc2c1O[C@H](CN(C)Cc1ccc(C(F)(F)F)cc1)[C@@H](C)CN([C@@H](C)CO)C2=O
AC50 [2]: > 70000 nM (inactive)

Cc1ccccc1-c1ccc(CN(C)C[C@@H]2Oc3cc(C#C[C@@H](C)O)ccc3S(=O)(=O)N([C@@H](C)CO)C[C@@H]2C)cc1
AC50 [3]: 768 nM (active) | AC50 [4]: 34600 nM (active) | AC50 [5]: 1650 nM (active) | AC50 [6]: 2000 nM (active)

Cc1ccc(-c2cc(NCCCN3CCCCC3)c3ccccc3n2)cc1
IC50 [7]: 1340 nM (active) | IC50 [8]: 2990 nM (active)

COc1ccccc1NC(=O)Nc1ccc2c(c1)OC[C@@H](C)N(Cc1ccccc1Cl)C[C@@H](C)[C@H](OC)CN(C)C2=O
AC50 [9]: 874 nM (active) | AC50 [10]: 30.5 nM (active) | AC50 [11]: < 300 nM (active) | AC50 [12]: 16 nM (active) | AC50 [13]: 181 nM (active) | AC50 [14]: 220 nM (active)

COc1ccc2c3c([nH]c2c1)[C@H](CO)N(C(=O)Cc1ccccc1)CC31CCN(C(=O)Nc2ccccc2F)CC1
AC50 [9]: 97.7 nM (active) | AC50 [15]: > 100000 nM (inactive) | AC50 [16]: 277 nM (active) | AC50 [11]: 472 nM (active) | AC50 [12]: 208 nM (active) | AC50 [17]: 25200 nM (active) | AC50 [14]: 123 nM (active)

COCc1c(C(C)C)nc(C(C)C)c(/C=C/[C@@H](O)C[C@@H](O)CC(=O)O)c1-c1ccc(F)cc1 [CERIVASTATIN SODIUM]
EC50 [18]: 339 nM (inconclusive) | EC50 [19]: 347 nM (inconclusive) | EC50 [20]: 356 nM (inconclusive) | EC50 [21]: 338 nM (inconclusive) | EC50 [22]: < 104 nM (active) | IC50 [23]: > 10000 nM (inactive) | IC50 [24]: 143 nM (active) | IC50 [25]: 1010 nM (active) | IC50 [26]: 240 nM (active) | IC50 [27]: 1870 nM (active) | IC50 [28]: 1920 nM (active) | IC50 [29]: > 10000 nM (inactive) | IC50 [30]: 1210 nM (active) | IC50 [31]: 2510 nM (active) | IC50 [32]: 52.9 nM (active)

CC(C)(C)c1nnc(NS(=O)(=O)c2ccccc2)s1 [GLYBUZOLE]
IC50 [33]: 13100 nM (inactive) | IC50 [34]: > 33300 nM (inactive)

— ChEMBL document CHEMBL1201862, “PubChem BioAssay data set” (2004)
